Laboratory results reported in patent US20250154172A1, “PRMT5 INHIBITORS AND USES THEREOF” (Gilead Sciences, Inc., priority 2023, published 2025).

System: HCT116 MTAP-deleted cell lines
Experiment: Cell viability assay for HCT116 isogenic pair (CellTitre-Glo, 7 days)
Type: cell-based
Conditions: Homo sapiens, HCT-116, 168 h, 7 days of treatment, cell line not given
Experimental: Control compounds were analyzed in parallel each time for quality control.
In Brief, on Day −1, a serial dilution of stock compounds in DMSO was performed using BioMek liquid handlers and dispensed using Echo acoustic dispenser into 384 well plates. Both tool compounds and sample compounds were spotted in the same plate for a dose response of PRMT5 inhibitors. Compound plates were stored as frozen until the cells were ready for seeding.
On Day 0, 100 HCT WT or HCT116 MTAP-deleted cells were seeded in compound-containing 384 well plates (50 μl per well) in RPMI 1640 media supplemented with 10% heat inactivated fetal bovine serum, Glutamax and penicillin streptomycin using EL460 liquid dispenser 5 μl cassette (BioTek, part no. 7170011). After equilibrating the plate in room temperature, the cells were incubated for 7 days inside the sealed incubator set at 37° C. with 90% humidity and 5% CO2.
On Day 7, the viability of cells was measured using a CTG assay kit (CellTitre-Glo; Promega cat no. G7573). Shortly, 40 μl per well of luminescent cell viability assay reagent were dispensed using EL460 liquid dispenser 5 μl cassette. CTG luminescence signal was measured using an EnVision plate reader (PerkinElmer) in accordance with manufacturer's instruction. The CCso values for each compound after 7 days of treatment were calculated using 4 parameter non-linear logistical curve fit.
For the cell viability assay ie CC50 shown in nM in Table 3.

Row | Compound | CC50 [µM]
1 | Cn1ncc2c(N)nc3cnc(C(=O)N4CCC[C@@H]5Oc6cc(C(F)(F)F)ccc6[C@@H]54)cc3c21 [Example Ca-19, (4-amino-1-methyl-1H-pyrazolo[4,3-c][1,7]naphthyridin-8-yl)((4aS,9bS)-7-(trifluoromethyl)-3,4,4a,9b-tetrahydrobenzofuro[3,2-b]pyridin-1(2H)-yl)methanone] | 0.006
2 | C[C@H]1CN(C(=O)c2cc3c(cc2F)nc(N)c2cnn(C)c23)[C@H]2c3ccc(C(F)(F)F)cc3C[C@H]2O1 [Example Ca-22, (4-amino-7-fluoro-1-methyl-1H-pyrazolo[4,3-c]quinolin-8-yl)((2S,4aS,9aR)-2-methyl-7-(trifluoromethyl)-2,3,9,9a-tetrahydroindeno[2,1-b][1,4]oxazin-4(4aH)-yl)methanone] | 0.011
3 | Nc1nc2cnc(C(=O)N3CC[C@H]4C[C@@H]3c3c(F)cc(C(F)(F)F)cc3O4)cc2c2c1COC2 [Example Ca-59, (4-amino-1,3-dihydrofuro[3,4-c][1,7]naphthyridin-8-yl)((2S,6R)-7-fluoro-9-(trifluoromethyl)-3,4-dihydro-2H-2,6-methanobenzo[b][1,5]oxazocin-5(6H)-yl)methanone] | 0.017
4 | Cn1ncc2c(N)nc3cnc(C(=O)N4CCO[C@@H]5Cc6cc(Br)c(F)cc6[C@@H]54)cc3c21 [Example Ca-29, (4-amino-1-methyl-1H-pyrazolo[4,3-c][1,7]naphthyridin-8-yl)((4aS,9aR)-7-bromo-6-fluoro-2,3,9,9a-tetrahydroindeno[2,1-b][1,4]oxazin-4(4aH)-yl)methanone] | 0.005
5 | Cn1ncc2c3cc(C(=O)N4CCC[C@@H]5Oc6cc(C(F)(F)F)ccc6[C@@H]54)ncc3nc(N)c21 [Example Ca-43, (4-amino-3-methyl-3H-pyrazolo[3,4-c][1,7]naphthyridin-8-yl)((4aS,9bS)-7-(trifluoromethyl)-3,4,4a,9b-tetrahydrobenzofuro[3,2-b]pyridin-1(2H)-yl)methanone] | 0.056
6 | Nc1nc2cnc(C(=O)N3CC[C@H]4C[C@@H]3c3ccc(C(F)(F)F)nc3O4)cc2c2c1COC2 [Example Ca-18, (4-amino-1,3-dihydrofuro[3,4-c][1,7]naphthyridin-8-yl)((2S,6R)-9-(trifluoromethyl)-3,4-dihydro-2H-2,6-methanopyrido[2,3-b][1,5]oxazocin-5(6H)-yl)methanone] | 0.034
7 | Cn1ncc2c(N)nc3cnc(C(=O)N4CCC[C@@H]5Oc6cc(OC(F)F)c(F)cc6[C@@H]54)cc3c21 (racemic) [Example Ca-21, (Rac)-(4-amino-1-methyl-11H-pyrazolo[4,3-c][1,7]naphthyridin-8-yl)(7-(difluoromethoxy)-8-fluoro-3,4,4a,9b-tetrahydrobenzofuro[3,2-b]pyridin-1(2H)-yl)methanone] | 0.015
8 | [2H]C1([2H])CC[C@@H]2Oc3cc(C(F)(F)F)ccc3[C@@H]2N1C(=O)c1cc2c3c(c(N)nc2cn1)COC3 [Example Ca-48, (4-amino-1,3-dihydrofuro[3,4-c][1,7]naphthyridin-8-yl)((4aS,9bS)-7-(trifluoromethyl)-3,4,4a,9b-tetrahydrobenzofuro[3,2-b]pyridin-1(2H)-yl-2,2-d2)methanone] | 0.012
9 | C[C@@H]1C[C@@H]2CCc3cc(C(F)(F)F)ccc3[C@@H]2N(C(=O)c2cc3c(cn2)nc(N)c2cnn(C)c23)C1 (racemic) [Example Ca-39, (Rac)-(4-amino-1-methyl-1H-pyrazolo[4,3-c][1,7]naphthyridin-8-yl)((3R,4aS,10bR)-3-methyl-8-(trifluoromethyl)-3,4,4a,5,6,10b-hexahydrobenzo[h]quinolin-1(2H)-yl)methanone] | 0.079
10 | Cn1ncc2c(N)nc3ccc(C(=O)N4CCOC5CCc6ccccc6C54)cc3c21 (stereo not shown) [Example Ca-20, 2,3,4a,5,6,10b-hexahydrobenzo[f][1,4]benzoxazin-1-yl-(4-amino-1-methyl-pyrazolo[4,3-c]quinolin-8-yl)methanone] | 0.046
